Data as given in article PMC12442099 (ACS Infectious Diseases, 2025).
In brackets after ≈: the same amount, converted by molar mass.

Experiments:
[1] = tested on: Rcs stress (PrprA-mNG) in E. coli TOP10F’ cells; test: Rcs stress reporter assay, laboratory scale 96-well end point; format: cell-based; settings: 50 μM MRL-494, 150 min, compared to 25 μM PMBN (100%)
Experimental: (§1) For lower throughput analysis under laboratory conditions, cultures grown to OD600 of 0.3–0.4 were diluted to a final concnetration of 0.05 OD600 units/mL in black, clear-bottom 96-well plates (Greiner Bio-One B.V.). Plates were incubated in a Biotek HTX or H1 plate reader (Agilent Technologies) at 37 °C with continuous shaking. Kinetic studies were performed by measuring OD600 and fluorescence (Ex./Em. Λ: 485/528 nm) every 20 min for 10h. For end point measurements, fluorescence was measured at T = 0 and once more at T = 150 min.

E. coli TOP10F' = test: Growth inhibition after 7 hours (EC80/EC50); settings: for EC50 / IC80: Escherichia coli, 7 h; for EC50: read-out: EC50 TOP10F'; for IC80: read-out: EC80 TOP10F'
A. baumanni 9955 = test: MIC broth microdilution; format: cell-based; settings: Acinetobacter baumannii, clinical isolate, CAMHB, median of triplicates, read-out: MIC (μg/mL) A. baumanni 9955
Experimental: (§2) The antibacterial activity of the compounds was determined by measuring their minimum inhibitory concentration (MIC) values using the broth microdilution method according to the Clinical and Laboratory Standards Institute guidelines (CLSI). Briefly, a single colony from blood agar plates was inoculated into cation-adjusted Mueller-Hinton broth (CAMHB) and grown to OD600 = 0.5. Next, 10^6 CFU/mL were added to a 2-fold serial dilution series of test compounds and incubated at 37 °C, 600 rpm overnight (18–20 h for Gram-negative strains, 20–24 h for Gram-positive strains), after which the plates were visually inspected for bacterial growth. MICs are reported as the median of triplicates.

E. coli 25922 = test: MIC broth microdilution; format: cell-based; settings: Escherichia coli, CAMHB, median of triplicates, read-out: MIC (μg/mL) E. coli 25922
Experimental: as §2

E. coli BW25113 = test: MIC broth microdilution; format: cell-based; settings: Escherichia coli, CAMHB, median of triplicates, read-out: MIC (μg/mL) E. coli BW25113
Experimental: as §2

E. coli TOP10F’ = test: MIC broth microdilution; format: cell-based; settings: Escherichia coli; screening strain; CAMHB, median of triplicates; read-out: MIC (μg/mL) E. coli TOP10F’
Experimental: as §2

K. pneumoniae 13883 = test: MIC broth microdilution; format: cell-based; settings: Klebsiella pneumoniae, clinical isolate, CAMHB, median of triplicates, read-out: MIC (μg/mL) K. pneumoniae 13883
Experimental: as §2

P. aeruginosa 27853 = test: MIC broth microdilution; format: cell-based; settings: Pseudomonas aeruginosa, clinical isolate, CAMHB, median of triplicates, read-out: MIC (μg/mL) P. aeruginosa 27853
Experimental: as §2

S. aureus USA 300 = test: MIC broth microdilution; format: cell-based; settings: Staphylococcus aureus, USA300; clinical isolate; CAMHB, median of triplicates; read-out: MIC (μg/mL) S. aureus USA 300
Experimental: as §2

[2] = tested on: Rcs stress response in E. coli TOP10F’; test: Rcs stress kinetics reporter assay; format: cell-based
Experimental: (§3) Stress was measured in real-time during 10 h following compound treatment by normalizing the fluorescence intensity for growth as indicated by the optical density at 600 nm (OD600) of the culture.
(§4) 3 Bacterial stress responses of different compound classes as shown in panel (A). (B) Rcs, (C) σE, (D) Cpx, and (E) heat shock. Graphs show fold change in fluorescence normalized for OD600 at EC80 compound concentrations over the course of 10h. Fold change values were determined by comparing OD600‑normalized fluorescence of compound-treated samples to DMSO treated samples. PMBN is used as a CE stress-inducing control at 25 μg/mL, which is the concentration used as a control during the screening campaign. Chloramphenicol at 1 μg/mL is used as a non-stress-inducing antibiotic control. Error bars indicate standard deviation of the average of triplicate samples from at least two independent experiments. (F) Overview of the different stress responses based on the compound class.
as §1

[3] = tested on: σE stress response in E. coli TOP10F’; test: σE stress kinetics reporter assay; format: cell-based
Experimental: as §3, §4, §1

[4] = tested on: Cpx stress response in E. coli TOP10F’; test: Cpx stress kinetics reporter assay; format: cell-based
Experimental: as §3, §4, §1

[5] = tested on: Rcs stress response in E. coli MC4100 (WT, FQR, GEPR); test: Rcs stress reporter assay in MC4100 wildtype and resistant mutants; format: cell-based; settings: EC80 concentrations
Description: Serial passaging of E. coli MC4100 in the presence of increasing concentrations of lomefloxacin or gepotidacin yielded resistant variants of E. coli MC4100. We used MC4100 to raise resistance, because unlike the screening strain TOP10F’, this strain has a functional SOS stress response, which has been implicated in developing resistance against quinolones. Compounds also elicited a robust Rcs stress response in E. coli MC4100, allowing for this strain to be used for stress assays.
4 Rcs stress induced by EC80 concentrations of (A) lomefloxacin, (B) gepotidacin, (C) A2, and (D) B1 in wildtype (WT), fluoroquinolone resistant (FQR) or gepotidacin resistant (GEPR) bacteria. Graphs show the fold change in fluorescence adjusted for bacterial growth as determined by OD600. Error bars indicate the standard deviation of triplicate samples. Data are representative of three independent experiments with similar results. […]
as §1

[6] = tested on: E. coli MC4100 FQR and GEPR mutants; test: Growth kinetics on resistant mutants; format: cell-based; settings: EC80 concentrations, Fig. S3
Experimental: ONC of E. coli MC4100 were diluted to OD600 = 0.07 in 20 mL LB supplemented with an initial concentration of 0.4 μM lomefloxacin, 8 μM gepotidacin, or no antibiotic. After overnight incubation, part of the culture was plated onto LB agar plates with the same concentration of lomefloxacin or gepotidacin to isolate resistant colonies. OD600 of the remaining culture was determined and diluted to OD600 = 0.1 into fresh medium with a 1.5–2-fold increased concentration of lomefloxacin or gepotidacin. […] Resistant colonies were sent for Whole Genome Sequencing using short Illumina reads at MicrobesNG (Birmingham, UK). Sequencing data was analyzed using CLC Genomics Workbench (Qiagen).
Figure S3: Growth kinetics of lomefloxacin, gepotidacin, A2 and B1 on WT, FQR and GEPR mutants. E. coli
TOP10F’ cells were treated with EC80 concentrations of compounds and growth (OD600) recorded over time.
Graphs indicate % growth compared to DMSO control. Error bars indicate standard deviations of triplicates. […]

E. coli MC4100 = test: Growth inhibition after 7 hours (EC80/EC50); settings: Escherichia coli, MC4100, 7 h; for EC50: read-out: EC50 MC4100; for IC80: read-out: EC80 MC4100
[7] = tested on: SOS stress response in E. coli MC4100; test: SOS stress reporter assay (PlexA-mNG); format: cell-based; settings: EC80 compound concentrations (Fig. 5A); Fig. S4
Description: (§5) To examine the potential link between DNA gyrase inhibition, SOS stress, and CE stress, we designed a fluorescent SOS reporter plasmid, similar to the reporter plasmids used to study CE stresses.
5 (A) SOS stress induced by different compounds at EC80 concentrations in E. coli MC4100. (B) Rcs stress of different compounds at EC80 concentrations in E. coli MC4100. (C) Rcs stress of the nonquinolone gyrase inhibitor LEI-800 in TOP10F’. (D) Rcs stress induced by mitomycin C in E. coli TOP10F’ and E. coli MC4100. Graphs show fold change in fluorescence adjusted for bacterial growth (OD600). Error bars indicate standard deviation of triplicates. Data are representative of two independent experiments with similar results.

[8] = tested on: SOS stress response in E. coli TOP10F’; test: SOS stress reporter assay (PlexA-mNG); format: cell-based; settings: Fig. S4
Experimental: as §5
Figure S3: Growth kinetics of lomefloxacin, gepotidacin, A2 and B1 on WT, FQR and GEPR mutants. E. coli TOP10F’ cells were treated with EC80 concentrations of compounds and growth (OD600) recorded over time.
Graphs indicate % growth compared to DMSO control. Error bars indicate standard deviations of triplicates.
Data are representative of three independent experiments with similar results.
Fold change (RFU/OD600) MMC 1.6 μM
Fold change (RFU/OD600) Lome 18 μM
Figure S4: SOS stress induced by mitomycin C (MMC) and lomefloxacin (Lome). A) E. coli MC4100 or B) TOP10F’ cells with a plasmid expressing mNeonGreen under control of a PlexA promotor were treated with compounds and growth (OD600) and fluorescence recorded over time. Graphs indicate fold change in growth-adjusted fluorescence compared to DMSO control. Error bars indicate standard deviations of triplicates. […]

[9] = tested on: heat shock (groES) response in E. coli TOP10F’; test: Heat shock (groES) stress kinetics reporter assay; format: cell-based; settings: PMBN 25 μg/mL
Experimental: as §3
as §4, with “Error bars indicate standard deviation of the average of triplicate samples from at least two independent experiments. (F) Overview of the different stress responses based on the compound class.” left out
as §1

[10] = compounds at EC80, PMBN 25 μg/mL
[11] = Figure 3F, compounds at EC80, PMBN 25 μg/mL

Compound: NC(N)=NC(=O)CC(Nc1nc(N=C(N)N)nc(NC2CCC(NC(=O)Cn3nnc(-c4ccc(F)cc4)n3)CC2)n1)C1CC1 (stereo not shown) [MRL-494, reference compound]
- % effect (Rcs stress-induced fluorescence) [1]: 100.4%
- EC50 TOP10F' (E. coli TOP10F'; growth after 7 hours inhibited by 50% compared to DMSO control): 16 µg/mL (≈ 25.7 µM)
- EC80 TOP10F' (E. coli TOP10F'; growth after 7 hours inhibited by 80% compared to DMSO control): 32 µg/mL (≈ 51.4 µM)

Compound: O=c1ccc2ncc(=O)n3c2n1C[C@H]3CN1CCC(NCc2cc3c(cn2)OCCC3)CC1 [gepotidacin, Gepotidacin, reference compound]
- MIC (A. baumanni 9955): 16 µg/mL (≈ 35.7 µM)
- MIC (E. coli 25922): 2 µg/mL (≈ 4.46 µM)
- MIC (E. coli BW25113): 1 µg/mL (≈ 2.23 µM)
- MIC (E. coli TOP10F’): 0.06 µg/mL (≈ 0.134 µM)
- MIC (K. pneumoniae 13883): 4 µg/mL (≈ 8.92 µM)
- MIC (P. aeruginosa 27853): 8 µg/mL (≈ 17.8 µM)
- MIC (S. aureus USA 300): 0.25 µg/mL (≈ 0.557 µM)
- Rcs onset time ([2]; EC80 concentrations): ~100 min
- time of (first) Rcs peak post-treatment ([2]; EC80 concentrations): 260 to 280 min
- fold increase in Rcs stress (up to) ([2]; EC80 concentrations, fluorescence/OD600 vs DMSO, 10 h): ~17 fold
- Rcs Pattern [2, 10]: biphasic
- time of primary σE peak ([3]; EC80 concentrations): ~150 min
- σE onset time ([3]; EC80 concentrations): ~60 min
- fold change in σE stress (up to) ([3]; EC80 concentrations, vs DMSO): ~3 fold
- σE Pattern [3, 10]: biphasic
- Cpx onset time ([4]; EC80 concentrations): 150 to 200 min
- Rcs stress in FQR (gyrA S83L) mutant [5]: still exhibited Rcs stress
- Rcs stress in GEPR mutant [5]: did not show Rcs stress
- growth inhibition / susceptibility of FQR (gyrA S83L) mutant [6]: remained susceptible to growth inhibition
- growth inhibition / susceptibility of GEPR mutant [6]: moderate insensitivity
- EC50 (E. coli TOP10F'): 0.125 µg/mL (≈ 0.279 µM)
- IC80 (E. coli TOP10F'): 8 µg/mL (≈ 17.8 µM)
- EC50 (E. coli MC4100): 1 µg/mL (≈ 2.23 µM)
- IC80 (E. coli MC4100): 8 µg/mL (≈ 17.8 µM)

Compound: CCn1cc(C(=O)O)c(=O)c2cc(F)c(N3CCNC(C)C3)c(F)c21 (stereo not shown) [lomefloxacin, Lomefloxacin, reference compound]
- SOS stress induction in MC4100 [7]: high fluorescence
- SOS stress induction in TOP10F’ [8]: did not induce high fluorescence
- Rcs stress in FQR (gyrA S83L) mutant [5]: lacked Rcs stress
- growth inhibition / susceptibility of GEPR mutant [6]: less susceptible
- EC50 (E. coli TOP10F'): 0.031 µg/mL (≈ 0.0882 µM)
- IC80 (E. coli TOP10F'): 2 µg/mL (≈ 5.69 µM)
- EC50 (E. coli MC4100): 0.125 µg/mL (≈ 0.356 µM)
- IC80 (E. coli MC4100): 0.25 µg/mL (≈ 0.712 µM)

Compound: CO[C@@]12[C@H](COC(N)=O)C3=C(C(=O)C(C)=C(N)C3=O)N1C[C@@H]1N[C@@H]12 [mitomycin C]
- Rcs stress induction in SOS-deficient TOP10F’ ([2]; fold change fluorescence/OD600): at lower levels than the gyrase inhibitors
- SOS stress induction in MC4100 [7]: high fluorescence
- SOS stress induction in TOP10F’ [8]: did not induce high fluorescence
- Rcs stress induction in MC4100 wildtype [5]: Neither compound induced Rcs stress

Compound: polymyxin B nonapeptide [PMBN]
- Rcs Response time [2, 11]: Fast
- Rcs Pattern [2, 10]: Single peak
- σE Response time [3, 11]: Fast
- σE Pattern [3, 10]: Single peak
- Cpx Pattern [4, 11]: Continuous
- Cpx Response time [4, 11]: Slow
- heat shock induction [9]: did not induce heat shock
